For data set [1], the target named is T1, Azetylcholinesterase des menschlichen Bluts (Homo sapiens, UniProt P22303).
T1 construct: Cholinesterase des Grundgerüstes der Erythrozyten des menschlichen Bluts; from tissue; host or cells: human erythrocyte stroma (ghosts)
Nature of the data set: Reactivation in vitro of erythrocyte cholinesterase inhibited by organophosphorus compounds (potentiometric titration). The class given is biochemical. The following applies: reactivator 1.10^-4 M01/1, 25°C, pH 7,5.

The target of data set [2] is T2, Azetylcholinesterase des Rattengehirns (Rattus norvegicus, UniProt P37136).
T2 construct: Azetyl- und Buty rylcholinesterase des Rattengehirns; from tissue; host or cells: rat brain sections after in vivo dosing
T2 sequence (P37136 32-614): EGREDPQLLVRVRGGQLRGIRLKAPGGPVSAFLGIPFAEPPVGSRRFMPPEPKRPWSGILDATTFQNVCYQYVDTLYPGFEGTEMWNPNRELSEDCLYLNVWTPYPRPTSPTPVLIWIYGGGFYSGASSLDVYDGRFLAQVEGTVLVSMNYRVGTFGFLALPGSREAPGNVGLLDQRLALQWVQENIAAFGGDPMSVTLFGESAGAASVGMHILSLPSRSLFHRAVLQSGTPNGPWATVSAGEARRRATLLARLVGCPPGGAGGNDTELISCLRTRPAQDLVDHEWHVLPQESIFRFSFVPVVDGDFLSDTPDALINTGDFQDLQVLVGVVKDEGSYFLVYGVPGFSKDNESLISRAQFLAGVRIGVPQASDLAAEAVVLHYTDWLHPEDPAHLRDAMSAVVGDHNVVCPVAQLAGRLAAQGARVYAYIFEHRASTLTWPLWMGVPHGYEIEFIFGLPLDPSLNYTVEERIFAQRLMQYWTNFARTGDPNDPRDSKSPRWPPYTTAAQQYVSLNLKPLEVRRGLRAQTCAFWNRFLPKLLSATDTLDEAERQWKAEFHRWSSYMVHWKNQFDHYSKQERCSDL
Nature of the data set: Histochemical study of acetylcholinesterase activity in rat brain. The class given is in vivo, Ratten. The source says:
Nach den histochemischen Methoden wurde der Einfluss des erfindungsgemässen Arzneimittels auf die Aktivität der Azetyl- und Buty rylcholinesterase des Rattengehirns untersucht und es wurde gezeigt, dass dieser von der Dosis des Arzneimittels und der Einführungszeit abhängt. […] Die Fermenthemmung wird bis 2 Stunden lang beobachtet, nachher folgt eine unbedeutende Aktivierung der Azetylcholinesterase, die bis 24 Stunden aufrechterhalten bleibt.

Data set [3] can be described thus: Acute toxicity, single administration, mice. The following applies: mouse, in vivo, Mäuse, read-out: LD50 (mg/kg) und deren zuverlässige Grenzen P = 0,05. The text has this:
(§1) Die Toxizität des erfindungsgemässen Arzneimittels bei der einmaligen Einführung (die akute Toxizität) wurde an geschlechtsreifen Tieren (an Mäusen, Ratten, Katzen, Hunden) bestimmt. Die Analyse der experimentellen Angaben für Mäuse und Ratten wurde nach der Methode der Probit-Analyse nach Litchfield und Wilcoxon, und für Hunde und Katzen nach der Methode der Anreicherung der Frequenz nach Behrens durchgeführt.
(§2) Die Toxizitätsparameter LD50 wurden für Mause bei der intraperitonealen und subkutanen Einführung, für Ratten bei der subkutanen, intramuskulären und enteralen Einführung, für Katzen bei der intramuskulären Einführung und für Hunde bei der subkutanen Einführung bestimmt.

Data set [4] is described as follows: Acute toxicity, single administration, cats. Conditions: cat, in vivo, im; Katzen, intramuskulär; read-out: LD50 (mg/kg) und deren zuverlässige Grenzen P = 0,05.
Excerpt: as §1, §2

Where two headings read alike, the source gives them in different places.

The text below walks through data of patent EP0364584A1, “ANTIDOTE FOR ORGANIC PHOSPHORUS COMPOUND POISONING” (priority 1988, dated 1989).

T1 sequence (P22303 other isoform, or with tags, fused parts or gaps): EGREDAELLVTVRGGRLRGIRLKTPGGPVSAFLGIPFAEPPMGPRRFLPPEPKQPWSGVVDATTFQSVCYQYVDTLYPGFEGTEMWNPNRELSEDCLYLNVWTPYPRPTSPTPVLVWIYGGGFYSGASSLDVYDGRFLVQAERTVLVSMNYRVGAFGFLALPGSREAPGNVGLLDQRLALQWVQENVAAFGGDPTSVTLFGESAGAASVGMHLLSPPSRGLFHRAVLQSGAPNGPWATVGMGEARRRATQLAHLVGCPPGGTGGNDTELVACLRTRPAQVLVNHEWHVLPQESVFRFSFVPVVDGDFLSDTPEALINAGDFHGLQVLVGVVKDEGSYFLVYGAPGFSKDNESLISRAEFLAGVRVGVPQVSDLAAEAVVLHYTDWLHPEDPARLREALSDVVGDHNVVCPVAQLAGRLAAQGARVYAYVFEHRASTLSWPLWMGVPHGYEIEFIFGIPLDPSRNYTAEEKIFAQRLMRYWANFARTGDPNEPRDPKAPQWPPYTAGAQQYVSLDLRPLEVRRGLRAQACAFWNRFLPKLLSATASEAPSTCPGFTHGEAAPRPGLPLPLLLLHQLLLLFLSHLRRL

Turning to `C=CC[n+]1ccccc1C=NO` [das erfindungsgemässe Arzneimittel, N-Allyl-2-pyridinaldoxiinbromid], the activity at 100 µM was 53.6% in data set [1] (0.5 h, pH 7, inhibited with O,O-Dimethyl-(2,2,2-trichlor-1-oxyäthyl) phosphonat, 0,5 h, read-out: Aktivität der Azetylcholinesterase in % (Reaktivationszeit in Stunden) 0,5); 48.1% in data set [1] (0.5 h, pH 7, inhibited with O,O-Dimethyl-S-(1,2-dikarbäthoxyäthyl)-dithiophosphat, 0,5 h, read-out: Aktivität der Azetylcholinesterase in % (Reaktivationszeit in Stunden) 0,5); 72.2% in data set [1] (1 h, pH 7, inhibited with O,O-Dimethyl-(2,2,2-trichlor-1-oxyäthyl) phosphonat, 1 h, read-out: Aktivität der Azetylcholinesterase in % (Reaktivationszeit in Stunden) 1); 75% in data set [1] (1 h, pH 7, inhibited with O,O-Dimethyl-S-(1,2-dikarbäthoxyäthyl)-dithiophosphat, 1 h, read-out: Aktivität der Azetylcholinesterase in % (Reaktivationszeit in Stunden) 1); 72.3% in data set [1] (2 h, pH 7, inhibited with O,O-Dimethyl-(2,2,2-trichlor-1-oxyäthyl) phosphonat, 2 h, read-out: Aktivität der Azetylcholinesterase in % (Reaktivationszeit in Stunden) 2); 78.1% in data set [1] (2 h, pH 7, inhibited with O,O-Dimethyl-S-(1,2-dikarbäthoxyäthyl)-dithiophosphat, 2 h, read-out: Aktivität der Azetylcholinesterase in % (Reaktivationszeit in Stunden) 2). Also, the “Einfluss auf die Aktivität der Azetyl- und Butyrylcholinesterase des Rattengehirns” value in data set [2] (Dosis 5 mg/kg, histochemical) was “keine Abweichung der Fermentaktivität von der Norm”. Besides, the “Einfluss auf die Aktivität der Azetylcholinesterase” value is “verändert es auch im wesentlichen die Aktivität der Azetylcholinesterase nicht” in data set [2] (Dosis 20 mg/kg, except white matter of hemispheres and Formatio reticularis neurons (inhibition 30 min bis 2 Stunden)); “deutlicher ausgeprägte Veränderungen der Azetylcholinesteraseaktivität” in data set [2] (Dosis 50 mg/kg, several brain structures, inhibition bis 2 Stunden, then slight activation bis 24 Stunden). Also, the “Aktivität der Azetylcholinesterase in den Neuronen der Grosshirnrinde” value in data set [2] (Dosis 20 und 50 mg/kg) is “keine Veränderungen der Aktivität der Azetylcholinesterase festgestellt”. Besides, the LD50 was found to be 64 mg/kg in data set [3] (ip, intraperitoneal); 115 mg/kg in data set [3] (sc, subkutan); 126 mg/kg in data set [4].
